# Test results from PubChem BioAssay (NCI).
#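 Briefly, cells in 96-well plates were exposed to five compound concentrations for 48 h, and endpoints were estimated by linear interpolation. Abbreviation: GI50, concentration required for 50% inhibition of growth. TGI: total growth inhibition.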
# How the values were obtained:
# Test in all cases: inhibition of tumour cell growth, NCI panel, 48 h
# [1] = system: 786-0 renal
# [2] = system: A498 renal
# [3] = system: A549 NSCLC
# [4] = system: ACHN renal
# [5] = system: BT-549 breast
# [6] = system: CAKI-1 renal
# [7] = system: CCRF-CEM leukemia
# [8] = system: COLO 205 colon
# [9] = system: DU-145 prostate
# [10] = system: EKVX NSCLC
# [11] = system: HCC-2998 colon
# [12] = system: HCT-116 colon
# [13] = system: HCT-15 colon
# [14] = system: HL-60(TB) leukemia
# [15] = system: HOP-62 NSCLC
# [16] = system: HOP-92 NSCLC
# [17] = system: HS 578T breast
# [18] = system: HT29 colon
# [19] = system: IGROV1 ovarian
# [20] = system: K-562 leukemia
# [21] = system: KM12 colon
# [22] = system: LOX IMVI melanoma
# [23] = system: M14 melanoma
# [24] = system: MALME-3M melanoma
# [25] = system: MCF7 breast
# [26] = system: MDA-MB-231 breast
# [27] = system: MDA-MB-435
# [28] = system: MOLT-4 leukemia
# [29] = system: NCI-H226 lung
# [30] = system: NCI-H23 lung
# [31] = system: NCI-H460 lung
# [32] = system: NCI-H522 lung
# [33] = system: NCI/ADR-RES ovarian
# [34] = system: OVCAR-3 ovarian
# [35] = system: OVCAR-4 ovarian
# [36] = system: OVCAR-5 ovarian
# [37] = system: OVCAR-8 ovarian
# [38] = system: PC-3 prostate
# [39] = system: RPMI-8226 leukemia
# [40] = system: RXF 393 renal
# [41] = system: SF-268 CNS
# [42] = system: SF-295 CNS
# [43] = system: SF-539 CNS
# [44] = system: SK-MEL-2 melanoma
# [45] = system: SK-MEL-28 melanoma
# [46] = system: SK-MEL-5 melanoma
# [47] = system: SK-OV-3 ovarian
# [48] = system: SN12C renal
# [49] = system: SNB-19 CNS
# [50] = system: SNB-75 CNS
# [51] = system: SR leukemia
# [52] = system: SW-620 colon
# [53] = system: T-47D breast
# [54] = system: TK-10 renal
# [55] = system: U251 CNS
# [56] = system: UACC-257 melanoma
# [57] = system: UACC-62 melanoma
# [58] = system: UO-31 renal
smiles,measurement,setting,value
O=C(N/N=C\c1ccc([N+](=O)[O-])cc1)c1ccc2nc(-c3ccc(Br)cc3)[nH]c2c1,GI50,[1],2.92 µM
same,TGI,[1],13 µM
same,GI50,[2],1.62 µM
same,TGI,[2],8.34 µM
same,GI50,[3],1.61 µM
same,TGI,[3],> 31.2 µM
same,GI50,[4],1.92 µM
same,TGI,[4],> 51.7 µM
same,GI50,[5],0.911 µM
same,TGI,[5],3.4 µM
same,GI50,[6],1.67 µM
same,TGI,[6],22.6 µM
same,GI50,[7],1.34 µM
same,TGI,[7],8.01 µM
same,GI50,[8],0.842 µM
same,TGI,[8],2.1 µM
same,GI50,[9],1.63 µM
same,TGI,[9],> 54.2 µM
same,GI50,[10],1.81 µM
same,TGI,[10],97.5 µM
same,GI50,[11],1.3 µM
same,TGI,[11],3.96 µM
same,GI50,[12],1.02 µM
same,TGI,[12],3.68 µM
same,GI50,[13],1.22 µM
same,TGI,[13],14.8 µM
same,GI50,[14],0.801 µM
same,TGI,[14],4.96 µM
same,GI50,[15],1.9 µM
same,TGI,[15],10.5 µM
same,GI50,[16],2.58 µM
same,TGI,[16],9.26 µM
same,GI50,[17],1.59 µM
same,TGI,[17],17 µM
same,GI50,[18],0.939 µM
same,TGI,[18],2.68 µM
same,GI50,[19],1.61 µM
same,TGI,[19],14.8 µM
same,GI50,[20],0.882 µM
same,TGI,[20],4.18 µM
same,GI50,[21],1.2 µM
same,TGI,[21],9.3 µM
same,GI50,[22],0.978 µM
same,TGI,[22],3.14 µM
same,GI50,[23],1.4 µM
same,TGI,[23],6.69 µM
same,GI50,[24],1.27 µM
same,TGI,[24],4.63 µM
same,GI50,[25],0.704 µM
same,TGI,[25],2.26 µM
same,GI50,[26],2.93 µM
same,TGI,[26],12 µM
same,GI50,[27],1.42 µM
same,TGI,[27],5.06 µM
same,GI50,[28],0.912 µM
same,TGI,[28],4.39 µM
same,GI50,[29],2.58 µM
same,TGI,[29],> 54.7 µM
same,GI50,[30],0.398 µM
same,TGI,[30],3.16 µM
same,GI50,[31],0.914 µM
same,TGI,[31],2.53 µM
same,GI50,[32],0.903 µM
same,TGI,[32],2.92 µM
same,GI50,[33],18.5 µM
same,TGI,[33],> 100 µM
same,GI50,[34],3.08 µM
same,TGI,[34],7.95 µM
same,GI50,[35],1.45 µM
same,TGI,[35],> 43 µM
same,GI50,[36],2.63 µM
same,TGI,[36],> 58.8 µM
same,GI50,[37],0.979 µM
same,TGI,[37],4.62 µM
same,GI50,[38],1.3 µM
same,TGI,[38],9.4 µM
same,GI50,[39],0.875 µM
same,TGI,[39],2.88 µM
same,GI50,[40],1.13 µM
same,TGI,[40],3.79 µM
same,GI50,[41],3.87 µM
same,TGI,[41],96.9 µM
same,GI50,[42],1.3 µM
same,TGI,[42],13.4 µM
same,GI50,[43],1.92 µM
same,TGI,[43],7.9 µM
same,GI50,[44],3.99 µM
same,TGI,[44],16.6 µM
same,GI50,[45],1.9 µM
same,TGI,[45],11.7 µM
same,GI50,[46],0.912 µM
same,TGI,[46],2.88 µM
same,GI50,[47],2.9 µM
same,TGI,[47],> 70.7 µM
same,GI50,[48],1.22 µM
same,TGI,[48],14.1 µM
same,GI50,[49],2.29 µM
same,TGI,[49],39.6 µM
same,GI50,[50],3.79 µM
same,TGI,[50],20 µM
same,GI50,[51],0.891 µM
same,TGI,[51],4.55 µM
same,GI50,[52],1.27 µM
same,TGI,[52],4.95 µM
same,GI50,[53],0.955 µM
same,TGI,[53],3.28 µM
same,GI50,[54],2.96 µM
same,TGI,[54],26 µM
same,GI50,[55],1.11 µM
same,TGI,[55],3.41 µM
same,GI50,[56],1.26 µM
same,TGI,[56],6.35 µM
same,GI50,[57],1.61 µM
same,TGI,[57],14.5 µM
same,GI50,[58],2.16 µM
same,TGI,[58],> 51.1 µM
